ChEMBL document CHEMBL1140374, “2-n-Butyl-9-methyl-8-[1,2,3]triazol-2-yl-9H-purin-6-ylamine and analogues as A2A adenosine receptor antagonists. Design, synthesis, and pharmacological characterization” (J Med Chem, 2005)

Assays:
[1] = target: T1, Adenosine receptor A1 (Homo sapiens, UniProt P30542); assay: biochemical
T1 sequence (P30542 whole entry): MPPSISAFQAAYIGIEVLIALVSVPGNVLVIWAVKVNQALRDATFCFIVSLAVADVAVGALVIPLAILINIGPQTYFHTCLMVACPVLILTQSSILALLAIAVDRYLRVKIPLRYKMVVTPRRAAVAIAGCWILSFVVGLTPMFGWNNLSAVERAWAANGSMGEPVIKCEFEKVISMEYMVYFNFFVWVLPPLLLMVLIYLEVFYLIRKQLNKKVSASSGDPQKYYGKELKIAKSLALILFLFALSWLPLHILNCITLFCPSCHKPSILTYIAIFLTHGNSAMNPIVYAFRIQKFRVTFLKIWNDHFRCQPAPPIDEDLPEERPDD

[2] = target: Adenosine receptor A2a (Homo sapiens, UniProt P29274); assay: biochemical
Sequence of Adenosine receptor A2a (P29274 whole entry): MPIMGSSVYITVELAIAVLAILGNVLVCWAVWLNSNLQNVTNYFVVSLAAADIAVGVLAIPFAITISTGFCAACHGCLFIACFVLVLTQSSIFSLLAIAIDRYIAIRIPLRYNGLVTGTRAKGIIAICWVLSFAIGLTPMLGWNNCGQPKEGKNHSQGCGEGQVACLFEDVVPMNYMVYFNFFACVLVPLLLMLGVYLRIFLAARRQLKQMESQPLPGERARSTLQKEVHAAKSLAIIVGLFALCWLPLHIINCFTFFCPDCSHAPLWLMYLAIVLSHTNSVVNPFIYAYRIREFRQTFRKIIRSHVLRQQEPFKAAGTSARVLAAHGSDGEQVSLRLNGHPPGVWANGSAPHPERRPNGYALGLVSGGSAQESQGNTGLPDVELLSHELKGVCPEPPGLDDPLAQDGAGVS

[3] = target: 5-hydroxytryptamine receptor 1A (Homo sapiens) (UniProt P08908); assay: Percent inhibition against 5-hydroxytryptamine 1A receptor at 1 uM
[4] = target: Beta-1 adrenergic receptor (Homo sapiens) (UniProt P08588); details: 1 uM
Sequence of Beta-1 adrenergic receptor (Homo sapiens) (P08588 whole entry, looked up): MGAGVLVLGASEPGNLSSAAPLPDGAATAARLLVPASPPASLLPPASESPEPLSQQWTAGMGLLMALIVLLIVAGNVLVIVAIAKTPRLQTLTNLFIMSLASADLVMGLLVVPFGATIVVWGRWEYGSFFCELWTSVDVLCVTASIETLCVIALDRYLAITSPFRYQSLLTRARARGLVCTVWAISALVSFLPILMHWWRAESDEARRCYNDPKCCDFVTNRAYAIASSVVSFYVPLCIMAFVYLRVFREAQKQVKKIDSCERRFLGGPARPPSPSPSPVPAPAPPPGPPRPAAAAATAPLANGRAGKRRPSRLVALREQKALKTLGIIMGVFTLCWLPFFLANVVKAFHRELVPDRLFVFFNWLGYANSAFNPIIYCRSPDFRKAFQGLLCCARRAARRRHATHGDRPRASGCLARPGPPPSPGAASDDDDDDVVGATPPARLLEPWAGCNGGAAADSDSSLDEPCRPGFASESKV

[5] = target: Opioid receptors; mu/kappa/delta (Homo sapiens) (UniProt P41145+P41143+P35372); details: at 1 µM
Sequence of Opioid receptors; mu/kappa/delta (Homo sapiens) (P35372 whole entry, looked up): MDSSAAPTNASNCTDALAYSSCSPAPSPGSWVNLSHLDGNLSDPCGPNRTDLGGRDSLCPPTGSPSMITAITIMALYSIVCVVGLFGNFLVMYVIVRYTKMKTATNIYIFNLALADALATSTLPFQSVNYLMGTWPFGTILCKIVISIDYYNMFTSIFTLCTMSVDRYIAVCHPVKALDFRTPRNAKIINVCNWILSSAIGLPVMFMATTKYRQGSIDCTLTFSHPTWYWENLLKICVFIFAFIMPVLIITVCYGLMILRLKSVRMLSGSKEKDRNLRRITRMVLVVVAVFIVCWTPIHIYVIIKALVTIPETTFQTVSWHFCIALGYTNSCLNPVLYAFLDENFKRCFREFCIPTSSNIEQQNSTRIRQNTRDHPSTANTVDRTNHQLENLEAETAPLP
Sequence of Opioid receptors; mu/kappa/delta (Homo sapiens) (P41143 whole entry, looked up): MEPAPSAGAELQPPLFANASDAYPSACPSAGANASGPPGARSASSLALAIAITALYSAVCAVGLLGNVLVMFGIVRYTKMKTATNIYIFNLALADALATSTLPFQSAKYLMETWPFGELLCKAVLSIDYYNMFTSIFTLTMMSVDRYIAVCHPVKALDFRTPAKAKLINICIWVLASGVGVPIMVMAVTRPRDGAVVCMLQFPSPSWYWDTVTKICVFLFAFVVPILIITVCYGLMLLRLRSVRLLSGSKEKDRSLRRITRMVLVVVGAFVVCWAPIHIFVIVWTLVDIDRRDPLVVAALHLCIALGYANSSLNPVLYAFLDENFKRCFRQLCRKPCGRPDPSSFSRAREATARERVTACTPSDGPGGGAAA
Sequence of Opioid receptors; mu/kappa/delta (Homo sapiens) (P41145 whole entry, looked up): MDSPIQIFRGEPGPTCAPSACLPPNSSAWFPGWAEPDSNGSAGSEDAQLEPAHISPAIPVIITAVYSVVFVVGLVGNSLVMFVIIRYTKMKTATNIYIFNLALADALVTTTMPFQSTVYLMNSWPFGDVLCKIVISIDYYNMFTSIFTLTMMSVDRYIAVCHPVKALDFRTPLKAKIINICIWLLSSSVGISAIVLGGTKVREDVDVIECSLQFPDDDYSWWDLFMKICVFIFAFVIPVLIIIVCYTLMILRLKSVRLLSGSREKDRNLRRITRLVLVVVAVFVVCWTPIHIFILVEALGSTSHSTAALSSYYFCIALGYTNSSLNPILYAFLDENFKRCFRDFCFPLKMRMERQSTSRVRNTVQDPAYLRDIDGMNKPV

[6] = target: T2, GABA-A receptor; anion channel (Homo sapiens) (UniProt P14867+P47870+P18507+P28472+P48169+Q99928+Q9UN88+P34903+O00591+O14764+Q8N1C3+P18505+P78334+P47869+P31644+Q16445); assay: (§1) Percent inhibition against GABAA receptor alpha at a compound concentration of 1 uM; assay type: protein-complex assay
[7] = target: T3, Glutamate [NMDA] receptor (Homo sapiens) (UniProt Q05586+Q12879+Q13224+O15399+O60391+Q14957+Q8TCU5); assay: Percent inhibition against NMDA receptor at a compound concentration of 1 uM; assay type: protein-complex assay
[8] = target: Adenosine receptor A3 (Homo sapiens, UniProt P0DMS8); assay: Binding affinity towards human Adenosine A3 receptor expressed in HEK293 cells using 0.1 nM [3H]AB-MECA; assay type: cell-based
[9] = organism: Homo sapiens; assay: Percent inhibition against P2X Purinergic receptor at 1 uM; assay type: tissue-based
[10] = target: Glutamate receptor ionotropic AMPA (Homo sapiens) (UniProt P48058+P42263+P42262+P42261); assay: (§2) Percent inhibition against AMPA receptor at 1 uM; assay type: protein-complex assay
[11] = target: Muscarinic acetylcholine receptor M2 (Homo sapiens) (UniProt P08172); details: 1 uM
[12] = target: Sodium-dependent noradrenaline transporter (Homo sapiens) (UniProt P23975); assay: Percent inhibition against Norepinephrine transporter at 1 uM nonselective
[13] = target: 5-hydroxytryptamine receptor 6 (Homo sapiens) (UniProt P50406); assay: Percent inhibition against 5-hydroxytryptamine 6 receptor at 1 uM
Sequence of 5-hydroxytryptamine receptor 6 (Homo sapiens) (P50406 whole entry): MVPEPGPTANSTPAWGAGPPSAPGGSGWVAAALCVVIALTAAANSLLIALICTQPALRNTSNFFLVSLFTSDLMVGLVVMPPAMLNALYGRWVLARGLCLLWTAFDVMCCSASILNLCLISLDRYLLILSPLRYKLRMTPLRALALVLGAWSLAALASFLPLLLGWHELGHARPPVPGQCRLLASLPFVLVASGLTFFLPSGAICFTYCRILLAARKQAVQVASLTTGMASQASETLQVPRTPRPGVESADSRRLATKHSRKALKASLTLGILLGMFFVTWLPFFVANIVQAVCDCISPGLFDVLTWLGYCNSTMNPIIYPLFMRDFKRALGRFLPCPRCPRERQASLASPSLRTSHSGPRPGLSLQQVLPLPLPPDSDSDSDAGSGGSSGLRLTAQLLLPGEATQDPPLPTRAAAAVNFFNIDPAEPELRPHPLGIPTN

[14] = target: Equilibrative nucleoside transporter 1 (Homo sapiens) (UniProt Q99808); assay: Percent inhibition against ADO transporter at 1 uM nonselective
[15] = target: Serotonin 3 (5-HT3) receptor (Homo sapiens) (UniProt P46098+A5X5Y0+O95264+Q70Z44+Q8WXA8); details: 1 uM
[16] = target: Muscarinic acetylcholine receptor M1 (Homo sapiens) (UniProt P11229); details: at 1 µM
[17] = target: 5-hydroxytryptamine receptor 5A (Homo sapiens) (UniProt P47898); details: 1 uM
Sequence of 5-hydroxytryptamine receptor 5A (Homo sapiens) (P47898 whole entry): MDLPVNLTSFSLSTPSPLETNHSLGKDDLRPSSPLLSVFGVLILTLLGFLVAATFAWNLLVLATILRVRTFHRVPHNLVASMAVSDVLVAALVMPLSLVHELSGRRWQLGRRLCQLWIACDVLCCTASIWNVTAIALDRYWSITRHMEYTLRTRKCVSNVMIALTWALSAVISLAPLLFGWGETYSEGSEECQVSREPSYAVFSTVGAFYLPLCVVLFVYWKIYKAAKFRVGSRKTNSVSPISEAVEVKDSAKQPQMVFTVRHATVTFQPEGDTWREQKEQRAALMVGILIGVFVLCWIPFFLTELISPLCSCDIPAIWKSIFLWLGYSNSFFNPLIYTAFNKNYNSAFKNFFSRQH

[18] = target: Sodium-dependent serotonin transporter (Homo sapiens) (UniProt P31645); details: 1 uM
[19] = target: Muscarinic acetylcholine receptor M4 (Homo sapiens) (UniProt P08173); assay: Percent inhibition against Muscarinic acetylcholine receptor M4 at 1 uM
[20] = target: Beta-2 adrenergic receptor (Homo sapiens) (UniProt P07550); assay: Percent inhibition against Beta-2 adrenergic receptor at 1 uM
[21] = target: T3, Glutamate [NMDA] receptor (Homo sapiens); assay: Percent inhibition against PCP receptor at 1 uM; assay type: protein-complex assay
[22] = target: D(2) dopamine receptor (Homo sapiens) (UniProt P14416); details: 1 uM
[23] = target: 5-hydroxytryptamine receptor 2A (Homo sapiens) (UniProt P28223); assay: Percent inhibition against 5-hydroxytryptamine 2A receptor at 1 uM
[24] = target: Adrenergic receptor alpha-1 (Homo sapiens) (UniProt P35348+P25100+P35368); details: 1 uM
[25] = target: 5-hydroxytryptamine receptor 4 (Homo sapiens) (UniProt Q13639); assay: Percent inhibition against 5-hydroxytryptamine 4 receptor at 1 uM
[26] = target: D(1B) dopamine receptor (Homo sapiens) (UniProt P21918); assay: Percent inhibition against Dopamine receptor D5 at 1 uM
[27] = target: D(1A) dopamine receptor (Homo sapiens) (UniProt P21728); details: 1 uM
[28] = target: Vesicular acetylcholine transporter (Homo sapiens) (UniProt Q16572); assay: (§3) Percent inhibition against Acetylcholine transporter at 1 uM
[29] = target: 5-hydroxytryptamine receptor 2C (Homo sapiens) (UniProt P28335); assay: Percent inhibition against 5-hydroxytryptamine 2C receptor at 1 uM
Sequence of 5-hydroxytryptamine receptor 2C (Homo sapiens) (P28335 whole entry): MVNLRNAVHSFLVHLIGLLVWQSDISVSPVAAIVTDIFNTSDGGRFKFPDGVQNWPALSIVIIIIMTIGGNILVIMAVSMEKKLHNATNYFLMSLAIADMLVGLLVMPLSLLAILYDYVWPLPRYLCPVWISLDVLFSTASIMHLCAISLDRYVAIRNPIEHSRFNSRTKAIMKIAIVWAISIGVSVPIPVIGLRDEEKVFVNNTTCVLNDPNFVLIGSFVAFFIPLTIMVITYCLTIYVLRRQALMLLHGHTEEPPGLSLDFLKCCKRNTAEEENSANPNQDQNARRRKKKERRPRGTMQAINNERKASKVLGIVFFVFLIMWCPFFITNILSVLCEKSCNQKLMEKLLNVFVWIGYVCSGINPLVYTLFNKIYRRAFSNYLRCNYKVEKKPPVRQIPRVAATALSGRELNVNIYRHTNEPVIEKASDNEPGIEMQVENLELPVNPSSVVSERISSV

[30] = target: Muscarinic acetylcholine receptor M5 (Homo sapiens) (UniProt P08912); assay: Percent inhibition against Muscarinic acetylcholine receptor M5 at 1 uM
[31] = target: D(3) dopamine receptor (Homo sapiens) (UniProt P35462); assay: Percent inhibition against Dopamine receptor D3 at 1 uM
Sequence of D(3) dopamine receptor (Homo sapiens) (P35462 whole entry): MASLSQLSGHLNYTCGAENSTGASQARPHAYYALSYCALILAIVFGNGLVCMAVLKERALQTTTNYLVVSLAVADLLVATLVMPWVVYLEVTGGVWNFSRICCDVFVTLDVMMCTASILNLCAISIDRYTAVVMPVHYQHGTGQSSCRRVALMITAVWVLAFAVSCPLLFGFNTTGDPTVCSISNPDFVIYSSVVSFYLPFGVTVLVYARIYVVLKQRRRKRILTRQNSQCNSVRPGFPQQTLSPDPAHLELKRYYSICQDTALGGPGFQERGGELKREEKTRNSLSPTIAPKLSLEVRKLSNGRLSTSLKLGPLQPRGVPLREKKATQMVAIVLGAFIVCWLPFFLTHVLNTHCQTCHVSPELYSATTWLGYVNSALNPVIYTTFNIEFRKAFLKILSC

[32] = target: Muscarinic acetylcholine receptor M3 (Homo sapiens) (UniProt P20309); assay: Percent inhibition against Muscarinic acetylcholine receptor M3 at 1 uM
Sequence of Muscarinic acetylcholine receptor M3 (Homo sapiens) (P20309 whole entry, looked up): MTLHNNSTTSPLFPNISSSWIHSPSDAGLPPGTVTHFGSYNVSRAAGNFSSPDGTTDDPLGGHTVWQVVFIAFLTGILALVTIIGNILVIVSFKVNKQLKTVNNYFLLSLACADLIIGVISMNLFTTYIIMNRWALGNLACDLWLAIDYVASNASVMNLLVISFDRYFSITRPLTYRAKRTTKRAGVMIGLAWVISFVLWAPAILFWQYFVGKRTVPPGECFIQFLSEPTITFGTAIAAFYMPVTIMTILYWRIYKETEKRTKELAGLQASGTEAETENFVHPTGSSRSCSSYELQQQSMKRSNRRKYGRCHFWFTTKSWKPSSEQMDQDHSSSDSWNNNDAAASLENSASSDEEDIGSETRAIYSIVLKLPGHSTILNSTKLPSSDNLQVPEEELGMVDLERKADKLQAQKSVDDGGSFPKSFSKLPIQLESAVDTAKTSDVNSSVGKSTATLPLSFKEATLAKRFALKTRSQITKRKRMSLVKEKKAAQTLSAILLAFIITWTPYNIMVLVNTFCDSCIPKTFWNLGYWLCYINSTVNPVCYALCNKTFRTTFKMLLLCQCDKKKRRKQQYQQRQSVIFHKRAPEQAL

[33] = target: GABA-B receptor (Homo sapiens) (UniProt Q9UBS5+O75899); assay: Percent inhibition against GABA-B receptor at 1 uM; assay type: protein-complex assay
[34] = target: D(4) dopamine receptor (Homo sapiens) (UniProt P21917); details: 1 uM
Sequence of D(4) dopamine receptor (Homo sapiens) (P21917 whole entry): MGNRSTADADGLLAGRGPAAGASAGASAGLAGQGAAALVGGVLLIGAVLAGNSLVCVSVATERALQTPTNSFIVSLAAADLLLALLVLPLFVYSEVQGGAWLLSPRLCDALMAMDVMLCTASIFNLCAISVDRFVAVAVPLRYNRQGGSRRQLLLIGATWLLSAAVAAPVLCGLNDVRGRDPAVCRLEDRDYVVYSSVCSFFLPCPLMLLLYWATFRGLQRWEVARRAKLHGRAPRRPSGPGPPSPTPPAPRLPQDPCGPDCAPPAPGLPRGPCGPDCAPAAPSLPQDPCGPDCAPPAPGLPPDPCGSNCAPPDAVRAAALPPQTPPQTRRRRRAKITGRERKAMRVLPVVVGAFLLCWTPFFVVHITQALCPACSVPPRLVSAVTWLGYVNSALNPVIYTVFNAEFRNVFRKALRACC

[35] = organism: Homo sapiens; assay: (§4) Percent inhibition against P2Y Purinoceptor at 1 uM
[36] = target: T2, GABA-A receptor; anion channel (Homo sapiens); assay: Percent inhibition against central Benzodiazepine receptor at 1 uM; assay type: protein-complex assay
[37] = target: Sodium-dependent dopamine transporter (Homo sapiens) (UniProt Q01959); details: 1 uM
[38] = as §4; set-up: species or system Homo sapiens
[39] = target: Glutamate receptor ionotropic AMPA (Homo sapiens, UniProt P42261+P42262+P42263+P48058); assay: as §2; assay type: protein-complex assay
[40] = target: T4, Adenosine receptor A2b (Homo sapiens, UniProt P29275); assay: Binding affinity towards human Adenosine A2b receptor expressed in HEK293 cells using 5 nM [3H]DPCPX; assay type: cell-based
T4 sequence (P29275 whole entry): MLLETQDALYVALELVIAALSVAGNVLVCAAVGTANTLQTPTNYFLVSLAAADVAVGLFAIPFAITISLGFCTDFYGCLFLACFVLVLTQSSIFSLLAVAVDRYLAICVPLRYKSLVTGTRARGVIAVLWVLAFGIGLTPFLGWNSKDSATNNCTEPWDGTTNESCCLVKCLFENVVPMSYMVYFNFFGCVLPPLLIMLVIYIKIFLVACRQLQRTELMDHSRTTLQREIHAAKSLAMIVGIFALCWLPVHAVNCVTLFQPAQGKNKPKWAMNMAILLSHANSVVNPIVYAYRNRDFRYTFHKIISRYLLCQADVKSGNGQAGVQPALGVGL

[41] = target: GABA-A receptor; anion channel; assay: as §1; assay type: protein-complex assay, Homo sapiens
[42] = target: Vesicular acetylcholine transporter (Homo sapiens, UniProt Q16572); assay: as §3

Cn1c(-n2nccn2)nc2c(N)ncnc21
0.4 nM: Ki [1]

O=c1nc2[nH]c3ccccc3nc-2c(=O)[nH]1 [ALLOXAZINE]
935 nM: Ki [2]
> 100000 nM: Ki [1]

CCn1c(=O)c2c(nc(/C=C/c3ccc(OC)c(OC)c3)n2C)n(CC)c1=O [ISTRADEFYLLINE]
> 1000 nM: Ki [1]

CCCCCc1nc(N)c2nc(-n3nccn3)n(C)c2n1
< 10%: inhibition [3] | inhibition [4] | inhibition [5] | inhibition [6] | inhibition [7] | inhibition [9] | inhibition [10] | inhibition [11] | inhibition [12] | inhibition [13] | inhibition [15] | inhibition [16] | inhibition [17] | inhibition [18] | inhibition [19] | inhibition [20] | inhibition [21] | inhibition [22] | inhibition [23] | inhibition [24] | inhibition [25] | inhibition [26] | inhibition [27] | inhibition [28] | inhibition [29] | inhibition [30] | inhibition [31] | inhibition [32] | inhibition [33] | inhibition [34] | inhibition [35] | inhibition [36] | inhibition [37]
760 nM: Ki [8]
34%: inhibition [14]

CC(C)c1nc(N)c2nc(-n3nccn3)n(C)c2n1
2270 nM: Ki [1]
481 nM: Ki [2]

Cc1nc(N)c2nc(-n3nccn3)n(C)c2n1
10.4 nM: Ki [1]

Nc1ncnc2c1ncn2[C@@H]1O[C@H](COP(=O)(O)CP(=O)(O)OP(=O)(O)O)[C@@H](O)[C@H]1O [DIPHOSPHOMETHYLPHOSPHONIC ACID ADENOSYL ESTER]
14%: inhibition [38]

O=C(O)[C@@H]1C[C@H](CP(=O)(O)O)CCN1 [SELFOTEL]
967 nM: IC50 [39]

CCCc1nc(N)c2nc(-n3nccn3)n(C)c2n1
266 nM: Ki [1]
18 nM: Ki [40]
83.7 nM: Ki [2]

Cn1c(-n2nccn2)nc2c(N)nccc21
51.6 nM: Ki [2]
518 nM: Ki [40]
1060 nM: Ki [1]

NCc1cc(=O)[nH]o1 [MUSCIMOL]
16 nM: IC50 [41]

Cc1cc2c(nc(-n3nccn3)n2C)c(N)n1
120 nM: Ki [2]
140 nM: Ki [40]
340 nM: Ki [1]

CCCCc1nc(N)c2nc(-n3nccn3)n(C)c2n1 [ST1535]
352 nM: Ki [40]
6.6 nM: Ki [2]
< 10%: inhibition [3] | inhibition [4] | inhibition [5] | inhibition [6] | inhibition [7] | inhibition [9] | inhibition [10] | inhibition [11] | inhibition [12] | inhibition [13] | inhibition [15] | inhibition [16] | inhibition [17] | inhibition [18] | inhibition [19] | inhibition [20] | inhibition [21] | inhibition [22] | inhibition [23] | inhibition [24] | inhibition [25] | inhibition [26] | inhibition [27] | inhibition [28] | inhibition [29] | inhibition [30] | inhibition [31] | inhibition [32] | inhibition [33] | inhibition [34] | inhibition [35] | inhibition [36] | inhibition [37]
71.8 nM: Ki [1]
24%: inhibition [14]
> 1000 nM: Ki [8]

Nc1ncnc2c1ncn2[C@H]1C[C@H](O)[C@@H](COP(O)(=S)OP(=O)(O)OP(=O)(O)O)O1 (some centres undefined)
22%: inhibition [38]

C[N+]1(C)CCOC(O)(c2ccc(-c3ccc(C4(O)C[N+](C)(C)CCO4)cc3)cc2)C1 (centres undefined)
12 nM: IC50 [42]
